Test system: human peripheral blood mononuclear cells (PBMC)
Test: PBMC cytotoxicity assay (CellTiter-Glo)
Assay type: cell-based
Conditions: cytotoxicity in stimulated PBMC, recorded as pCC50
Description: Compounds of the present invention were tested via high-throughput cellular assays utilizing detection of kynurenine via mass spectrometry and cytotoxicity as end-points. […] Compounds with IDO1 inhibitory properties decreased the amount of kynurenine produced by the cells via the tryptophan catabolic pathway. Cellular toxicity due to the effect of compound treatment was measured using CellTiter-Glo® reagent (CTG) (Promega Corporation, Madison, Wis.), which is based on luminescent detection of ATP, an indicator of metabolically active cells.
In preparation for the assays, test compounds were serially diluted 3-fold in DMSO from a typical top concentration of 1 mM or 5 mM and plated at 0.5 μL in 384-well, polystyrene, clear bottom, tissue culture treated plates with lids (Greiner Bio-One, Kremsmünster, Austria) to generate 11-point dose response curves. Low control wells (0% kynurenine or 100% cytotoxicity) contained either 0.5 μL of DMSO in the presence of unstimulated (−IFN-γ/−LPS) PBMCs for the mass spectrometry assay or 0.5 μL of DMSO in the absence of cells for the cytotoxicity assay, and high control wells (100% kynurenine or 0% cytotoxicity) contained 0.5 μL of DMSO in the presence of stimulated (+IFN-γ/+LPS) PBMCs for both the mass spectrometry and cytotoxicity assays.
Frozen stocks of PBMCs were washed and recovered in RPMI 1640 medium (Thermo Fisher Scientific, Inc., Waltham, Mass.) supplemented with 10% v/v heat-inactivated fetal bovine serum (FBS) (Thermo Fisher Scientific, Inc., Waltham, Mass.), and 1× penicillin-streptomycin antibiotic solution (Thermo Fisher Scientific, Inc., Waltham, Mass.). The cells were diluted to 1,000,000 cells/mL in the supplemented RPMI 1640 medium. 50 μL of either the cell suspension, for the mass spectrometry assay, or medium alone, for the cytotoxicity assay, were added to the low control wells, on the previously prepared 384-well compound plates, resulting in 50,000 cells/well or 0 cells/well respectively. IFN-γ and LPS were added to the remaining cell suspension at final concentrations of 100 ng/ml and 50 ng/ml respectively, and 50 μL of the stimulated cells were added to all remaining wells on the 384-well compound plates. The plates, with lids, were then placed in a 37° C., 5% CO2 humidified incubator for 2 days.
Following incubation, the 384-well plates were removed from the incubator and allowed to equilibrate to room temperature for 30 minutes. For the cytotoxicity assay, CellTiter-Glo® was prepared according to the manufacturer's instructions, and 40 μL were added to each plate well. After a twenty minute incubation at room temperature, luminescence was read on an EnVision® Multilabel Reader (PerkinElmer Inc., Waltham, Mass.). For the mass spectrometry assay, 10 μL of supernatant from each well of the compound-treated plates were added to 40 μL of acetonitrile, containing 10 μM of an internal standard for normalization, in 384-well, polypropylene, V-bottom plates (Greiner Bio-One, Kremsmünster, Austria) to extract the organic analytes. Following centrifugation at 2000 rpm for 10 minutes, 10 μL from each well of the acetonitrile extraction plates were added to 90 μL of sterile, distilled H2O in 384-well, polypropylene, V-bottom plates for analysis of kynurenine and the internal standard on the RapidFire 300 (Agilent Technologies, Santa Clara, Calif.) and 4000 QTRAP MS (SCIEX, Framingham, Mass.). MS data were integrated using Agilent Technologies' RapidFire Integrator software, and data were normalized for analysis as a ratio of kynurenine to the internal standard.

| SMILES | PBMC_TOX PXC50 |
| --- | --- |
| CO[C@H]1CC[C@@H](N(CC(C)C)c2ncc([C@H](C)CC(=O)O)cc2Nc2ccc(Cl)cn2)CC1 [Example 24, (R)-3-(5-((5-chloropyridin-2-yl)amino)-6-(isobutyl((1s,4S)-4-methoxycyclohexyl)amino)pyridin-3-yl)butanoic acid] | <5.0 |
| Cc1cc(NC(=O)Nc2cc([C@H](C)CC(=O)O)cnc2N(CC(C)C)C2CC3(C2)CN(C(=O)OC(C)(C)C)C3)on1 [Example 61, (3R)-3-[6-({2-[(tert-butoxy)carbonyl]-2-azaspiro[3.3]heptan-6-yl}(2-methylpropyl)amino)-5-{[(3-methyl-1,2-oxazol-5-yl)carbamoyl]amino}pyridin-3-yl]butanoic acid] | <5.0 |
| CC(C)CN(CC(C)C)c1ncc([C@H](C)CC(=O)O)cc1Nc1nnc(C(F)(F)F)s1 [Example 51, (3R)-3-{6-[bis(2-methylpropyl)amino]-5-{[5-(trifluoromethyl)-1,3,4-thiadiazol-2-yl]amino}pyridin-3-yl}butanoic acid] | <5.0 |
| CC(C)CN(c1ncc([C@H](C)CC(=O)O)cc1Nc1nc(C2CC2)ns1)C1CCOCC1 [Example 41, (3R)-3-{5-[(3-cyclopropyl-1,2,4-thiadiazol-5-yl)amino]-6-[(2-methylpropyl)(oxan-4-yl)amino]pyridin-3-yl}butanoic acid] | <5.0 |
| CC(C)CN(c1ncc([C@H](C)CC(=O)O)cc1Nc1ccc(Cl)nn1)C1CCOCC1 [Example 60, (3R)-3-{5-[(6-chloropyridazin-3-yl)amino]-6-[(2-methylpropyl)(oxan-4-yl)amino]pyridin-3-yl}butanoic acid] | <5.0 |
| CC(C)CN(c1ncc([C@H](C)CC(=O)O)cc1Nc1ccc(Cl)nc1)C1CCC(F)(F)CC1 [Example 17, (R)-3-(5-((6-chloropyridin-3-yl)amino)-6-((4,4-difluorocyclohexyl)(isobutyl)amino)pyridin-3-yl)butanoic acid] | <5.0 |
| CC(C)CN(c1ncc([C@H](C)CC(=O)O)cc1Nc1nc(Cl)ns1)C1CCCCC1 [Example 12, (R)-3-(5-((3-chloro-1,2,4-thiadiazol-5-yl)amino)-6-(cyclohexyl(isobutyl)amino)pyridin-3-yl)butanoic acid] | <5.0 |
| CC(C)CN(c1ncc([C@H](C)CC(=O)O)cc1Nc1nnc(C(N)=O)s1)C1CCCCC1 [Example 63, (3R)-3-{5-[(5-carbamoyl-1,3,4-thiadiazol-2-yl)amino]-6-[cyclohexyl(2-methylpropyl)amino]pyridin-3-yl}butanoic acid] | <5.0 |
| COCc1nsc(Nc2cc([C@H](C)CC(=O)O)cnc2N(CC(C)C)C2CCCCC2)n1 [Example 15, (R)-3-(6-(cyclohexyl(isobutyl)amino)-5-((3-(methoxymethyl)-1,2,4-thiadiazol-5-yl)amino)pyridin-3-yl)butanoic acid] | <5.5 |
| CC(C)CN(c1ncc([C@H](C)CC(=O)O)cc1Nc1ccc(Cl)cn1)C1CC(F)(F)C1 [Example 75, (3R)-3-{5-[(5-chloropyridin-2-yl)amino]-6-[(3,3-difluorocyclobutyl)(2-methylpropyl)amino]pyridin-3-yl}butanoic acid] | <5.0 |
| CC(C)CN(c1ncc([C@H](C)CC(=O)O)cc1Nc1cnc(Cl)cn1)C1CCOCC1 [Example 77, (3R)-3-{5-[(5-chloropyrazin-2-yl)amino]-6-[(2-methylpropyl)(oxan-4-yl)amino]pyridin-3-yl}butanoic acid] | <5.0 |
| CC(C)CN(c1ncc([C@H](C)CC(=O)O)cc1Nc1ccc(Cl)cn1)C1CCC(F)(F)CC1 [Example 18, (R)-3-(5-((5-chloropyridin-2-yl)amino)-6-((4,4-difluorocyclohexyl) (isobutyl)amino)pyridin-3-yl)butanoic acid] | <5.0 |
| CC(C)CN(c1ncc(C(C)CC(=O)O)cc1Nc1nc(C(F)(F)F)ns1)C1CCC(O)CC1 (stereo not drawn) [Example 59, (3RS)-3-{6-[(2-methylpropyl)[(1rs&,4rs&)-4-hydroxycyclohexyl]amino]-5-{[3-(trifluoromethyl)-1,2,4-thiadiazol-5-yl]amino}pyridin-3-yl}butanoic acid] | <5.0 |
| CC(C)CN(c1ncc([C@H](C)CC(=O)O)cc1Nc1n[nH]c(C(F)(F)F)n1)C1CCCCC1 [Example 10, (R)-3-(6-(cyclohexyl(isobutyl)amino)-5-((5-(trifluoromethyl)-1H-1,2,4-triazol-3-yl)amino)pyridin-3-yl)butanoic acid] | <5.0 |
| Cc1ccc(CC(=O)Nc2cc([C@H](C)CC(=O)O)cnc2N(CC(C)C)C2CC3(C2)CN(C(=O)OC(C)(C)C)C3)cc1 [Example 55, (3R)-3-[6-({2-[(tert-butoxy)carbonyl]-2-azaspiro[3.3]heptan-6-yl}(2-methylpropyl)amino)-5-[2-(4-methylphenyl)acetamido]pyridin-3-yl]butanoic acid] | <5.0 |
| CC(C)CN(c1ncc([C@H](C)CC(=O)O)cc1Nc1ccc(Cl)cn1)C1CCCCC1 [Example 13, (R)-3-(5-((5-chloropyridin-2-yl)amino)-6-(cyclohexyl(isobutyl)amino)pyridin-3-yl)butanoic acid] | <5.0 |
| CC(C)CN(c1ncc([C@H](C)CC(=O)O)cc1Nc1nc(Cl)ns1)C1CCOCC1 [Example 39, (3R)-3-{5-[(3-chloro-1,2,4-thiadiazol-5-yl)amino]-6-[(2-methylpropyl)(oxan-4-yl)amino]pyridin-3-yl}butanoic acid] | <5.0 |
| CC(C)CN(c1ncc([C@H](C)CC(=O)O)cc1Nc1ccc(C(N)=O)nn1)C1CCOCC1 [Example 73, (3R)-3-{5-[(6-carbamoylpyridazin-3-yl)amino]-6-[(2-methylpropyl)(oxan-4-yl)amino]pyridin-3-yl}butanoic acid] | <5.0 |
| CC(C)CN(c1ncc([C@H](C)CC(=O)NS(=O)(=O)N(C)C)cc1Nc1ccc(Cl)cn1)C1CCOCC1 [Example 80, (3R)-3-{5-[(5-chloropyridin-2-yl)amino]-6-[(2-methylpropyl)(oxan-4-yl)amino]pyridin-3-yl}-N-(dimethylsulfamoyl)butanamide] | <5.0 |
| COCc1nnc(Nc2cc([C@H](C)CC(=O)O)cnc2N(CC(C)C)C2CCOCC2)s1 [Example 49, (3R)-3-(5-{[5-(methoxymethyl)-1,3,4-thiadiazol-2-yl]amino}-6-[(2-methylpropyl)(oxan-4-yl)amino]pyridin-3-yl)butanoic acid] | <5.0 |
| CC(C)CN(c1ncc([C@H](C)CC(=O)O)cc1Nc1nc(C(C)C)ns1)C1CCCCC1 [Example 14, (R)-3-(6-(cyclohexyl(isobutyl)amino)-5-((3-isopropyl-1,2,4-thiadiazol-5-yl)amino)pyridin-3-yl)butanoic acid] | <5.0 |
| CC(C)CN(c1ncc([C@H](C)CC(=O)O)cc1Nc1cnc(C#N)cn1)C1CCOCC1 [Example 67, (3R)-3-{5-[(5-cyanopyrazin-2-yl)amino]-6-[(2-methylpropyl)(oxan-4-yl)amino]pyridin-3-yl}butanoic acid] | <5.0 |
| CC(C)CN(c1ncc([C@H](C)CC(=O)O)cc1Nc1ccc(C#N)nc1)C1CCOCC1 [Example 62, (3R)-3-{5-[(6-cyanopyridin-3-yl)amino]-6-[(2-methylpropyl)(oxan-4-yl)amino]pyridin-3-yl}butanoic acid] | <5.0 |
| CC(C)CN(CC(F)F)c1ncc([C@H](C)CC(=O)O)cc1Nc1ccc(Cl)cn1 [Example 71, (3R)-3-{5-[(5-chloropyridin-2-yl)amino]-6-[(2,2-difluoroethyl)(2-methylpropyl)amino]pyridin-3-yl}butanoic acid] | <5.0 |
| C[C@H](CC(=O)O)c1cnc(N(CC2CC2)C2CCOCC2)c(Nc2ccc(Cl)cn2)c1 [Example 9, (R)-3-(5-((5-chloropyridin-2-yl)amino)-6-((cyclopropylmethyl)(tetrahydro-2H-pyran-4-yl)amino)pyridin-3-yl)butanoic acid] | <5.0 |
